From patent publication US20260258032A1, “TYROSINE KINASE 2 INHIBITORS AND USES THEREOF” (BIOGEN MA INC., priority 2022, published 2026)
Counter-ions that a name gives are not always drawn.

How the values were obtained:
[1] = system: Tyk2 kinase activity on STAT4; assay: pSTAT4 cell assay (MSD, NK92 cells); assay type: cell-based; details: compounds 1 hr
Summary of the method: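 IC50 values derive from 4-parameter logistic fits of normalized percent activity against log compound concentration. Phospho-STAT was measured by MSD with anti-STAT4 antibodies after 15 min of 30 ng/mL IL2 in serum-starved NK92 cells pretreated 1 hr with compound.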

[2] = target: T1, JH2 domain of human Tyk2 (Homo sapiens, UniProt P29597); assay: JH2 biochemical assay (TR-FRET probe displacement); assay type: binding
T1 construct: 10×His-tagged TYK2 JH2 domain (amino acid 575-876)
Summary of the method: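 10×His-tagged human TYK2 JH2 (aa 575-876, 2 nM) incubated 60 min with 2 nM fluorescent probe, 0.1 nM Tb anti-His antibody and compound (10-point 3-fold series from […] top). TR-FRET 520/495 nm ratio, falling with probe displacement, normalized and fitted to a 4-parameter logistic for IC50.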

T1 sequence (P29597 575-876): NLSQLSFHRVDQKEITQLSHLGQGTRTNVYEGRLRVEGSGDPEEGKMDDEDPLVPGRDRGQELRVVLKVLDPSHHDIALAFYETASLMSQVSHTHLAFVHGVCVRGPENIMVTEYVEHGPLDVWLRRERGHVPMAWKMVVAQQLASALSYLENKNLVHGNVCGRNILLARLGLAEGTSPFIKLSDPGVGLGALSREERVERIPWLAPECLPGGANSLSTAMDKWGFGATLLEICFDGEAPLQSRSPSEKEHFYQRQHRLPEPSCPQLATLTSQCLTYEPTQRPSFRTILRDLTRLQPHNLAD

SMILES | IC50 ([1]; stimulated 15 minutes) | IC50 ([2]; JH2 biochemical assay) | IC50 ([1]; then stimulated 15 minutes) | IC50 ([2]; TR-FRET probe displacement, JH2 domain of human Tyk2)
COCCN(C)c1cc(N2CC3(CC3)c3cnc(NC(C)=O)cc32)nc(C(C)(F)F)n1 [Example 50, N-(1′-(2-(1,1-difluoroethyl)-6-((2-methoxyethyl)(methyl)amino)pyrimidin-4-yl)-1′,2′-dihydrospiro[cyclopropane-1,3′-pyrrolo[3,2-c]pyridin]-6′-yl)acetamide] | 100 to 1000 nM | ≤ 10 nM | – | –
CC(=O)Nc1cc2c(cn1)C1(CC1)CN2c1cc(C)nc(OC2CC(C)C2)n1 (stereo not shown) [Example 367, N-(1′-(6-methyl-2-(3-methylcyclobutoxy)pyrimidin-4-yl)-1′,2′-dihydrospiro[cyclopropane-1,3′-pyrrolo[3,2-c]pyridin]-6′-yl)acetamide] | ≥ 1000 nM | 100 to 1000 nM | – | –
CC(=O)Nc1cc2c(cn1)C1(CC1)CN2c1cc(C)cc(N2CC3CCN(C)C3C2)n1 (stereo not shown) [Example 277, N-(1′-(4-methyl-6-(1-methylhexahydropyrrolo[3,4-b]pyrrol-5(1H)-yl)pyridin-2-yl)-1′,2′-dihydrospiro[cyclopropane-1,3′-pyrrolo[3,2-c]pyridin]-6′-yl)acetamide trifluoroacetate] | ≥ 1000 nM | 100 to 1000 nM | – | –
COc1cccc(N2CC3(CC3)c3cnc(NC(C)=O)cc32)n1 [Example 313, N-(1′-(6-methoxypyridin-2-yl)-1′,2′-dihydrospiro[cyclopropane-1,3′-pyrrolo[3,2-c]pyridin]-6′-yl)acetamide] | ≥ 1000 nM | 10 to 100 nM | – | –
CCC(F)(F)c1nc(C)cc(N2CC3(CC3)c3cnc(NC(C)=O)cc32)n1 [Example 304, N-(1′-(2-(1,1-difluoropropyl)-6-methylpyrimidin-4-yl)-1′,2′-dihydrospiro[cyclopropane-1,3′-pyrrolo[3,2-c]pyridin]-6′-yl)acetamide trifluoroacetate] | 10 to 100 nM | ≤ 10 nM | – | –
CC(=O)Nc1cc2c(cn1)C1(CC1)CN2c1cc(C)cc(OCCF)n1 [Example 355, N-(1′-(6-(2-fluoroethoxy)-4-methylpyridin-2-yl)-1′,2′-dihydrospiro[cyclopropane-1,3′-pyrrolo[3,2-c]pyridin]-6′-yl)acetamide trifluoroacetate] | 100 to 1000 nM | ≤ 10 nM | – | –
CC(=O)Nc1cc2c(cn1)C1(CC1)CN2c1cc(C)nc(C23COC(C)(C2)C3)n1 [Example 318, N-(1′-(6-methyl-2-(1-methyl-2-oxabicyclo[2.1.1]hexan-4-yl)pyrimidin-4-yl)-1′,2′-dihydrospiro[cyclopropane-1,3′-pyrrolo[3,2-c]pyridin]-6′-yl)acetamide] | ≥ 1000 nM | 10 to 100 nM | – | –
COCCOc1cc(C)cc(N2CC3(CC3)c3cnc(NC(C)=O)cc32)n1 [Example 357, N-(1′-(6-(2-methoxyethoxy)-4-methylpyridin-2-yl)-1′,2′-dihydrospiro[cyclopropane-1,3′-pyrrolo[3,2-c]pyridin]-6′-yl)acetamide trifluoroacetate] | ≥ 1000 nM | 10 to 100 nM | – | –
CC(=O)Nc1cc2c(cn1)C1(CC1)CN2c1cc(C)cc(N2CC[C@@H](C#N)C2)n1 [Example 403, (R)-N-(1′-(6-(3-cyanopyrrolidin-1-yl)-4-methylpyridin-2-yl)-1′,2′-dihydrospiro[cyclopropane-1,3′-pyrrolo[3,2-c]pyridin]-6′-yl)acetamide] | – | – | 100 to 1000 nM | ≤ 10 nM
CC(=O)Nc1cc2c(cn1)C1(CC1)CN2c1cc(C)cc(C2(F)CC2)n1 [Example 279, N-(1′-(6-(1-fluorocyclopropyl)-4-methylpyridin-2-yl)-1′,2′-dihydrospiro[cyclopropane-1,3′-pyrrolo[3,2-c]pyridin]-6′-yl)acetamide] | 100 to 1000 nM | 10 to 100 nM | – | –
CC(=O)Nc1cc2c(cn1)C1(CC1)CN2c1nc(C)nc(C)c1F [Example 67, N-(1′-(5-fluoro-2,6-dimethylpyrimidin-4-yl)-1′,2′-dihydrospiro[cyclopropane-1,3′-pyrrolo[3,2-c]pyridin]-6′-yl)acetamide] | ≥ 1000 nM | 100 to 1000 nM | – | –
CC(=O)Nc1cc2c(cn1)C1(CC1)CN2c1cc(C)nc(-c2cnn(C)c2C(F)F)n1 [Example 248, N-(1′-(2-(5-(difluoromethyl)-1-methyl-1H-pyrazol-4-yl)-6-methylpyrimidin-4-yl)-1′,2′-dihydrospiro[cyclopropane-1,3′-pyrrolo[3,2-c]pyridin]-6′-yl)acetamide] | ≥ 1000 nM | 10 to 100 nM | – | –
COC1(C(=O)C2CC2)CCN(c2nc(C)cc(N3CC4(CC4)c4cnc(NC(C)=O)cc43)n2)CC1 [Example 231, N-(1′-(2-(4-(cyclopropanecarbonyl)-4-methoxypiperidin-1-yl)-6-methylpyrimidin-4-yl)-1′,2′-dihydrospiro[cyclopropane-1,3′-pyrrolo[3,2-c]pyridin]-6′-yl)acetamide trifluoroacetate] | ≥ 1000 nM | 100 to 1000 nM | – | –
CC(=O)Nc1cc2c(cn1)C1(CC1)CN2c1cc(C)nc(N2CC(F)C2)n1 [Example 217, N-(1′-(2-(3-fluoroazetidin-1-yl)-6-methylpyrimidin-4-yl)-1′,2′-dihydrospiro[cyclopropane-1,3′-pyrrolo[3,2-c]pyridin]-6′-yl)acetamide] | 100 to 1000 nM | ≤ 10 nM | – | –
CC(=O)Nc1cc2c(cn1)C1(CC1)CN2c1ccccn1 [Example 94, N-(1′-(pyridin-2-yl)-1′,2′-dihydrospiro[cyclopropane-1,3′-pyrrolo[3,2-c]pyridin]-6′-yl)acetamide] | ≥ 1000 nM | 100 to 1000 nM | – | –
COC(C)CNc1cc(N2CC3(CC3)c3cnc(NC(C)=O)cc32)nc(C(C)(F)F)n1 (stereo not shown) [Example 171, N-(1′-(2-(1,1-difluoroethyl)-6-((2-methoxypropyl)amino)pyrimidin-4-yl)-1′,2′-dihydrospiro[cyclopropane-1,3′-pyrrolo[3,2-c]pyridin]-6′-yl)acetamide trifluoroacetate] | 10 to 100 nM | ≤ 10 nM | – | –
CC(=O)Nc1cc2c(cn1)C1(CC1)CN2c1cc(NC2COC2)nc(C(C)(F)F)n1 [Example 285, N-(1′-(2-(1,1-difluoroethyl)-6-(oxetan-3-ylamino)pyrimidin-4-yl)-1′,2′-dihydrospiro[cyclopropane-1,3′-pyrrolo[3,2-c]pyridin]-6′-yl)acetamide] | 10 to 100 nM | ≤ 10 nM | – | –
CC(=O)Nc1cc2c(cn1)C1(CC1)CN2c1nc(C)c(C)s1 [Example 80, N-(1′-(4,5-dimethylthiazol-2-yl)-1′,2′-dihydrospiro[cyclopropane-1,3′-pyrrolo[3,2-c]pyridin]-6′-yl)acetamide] | ≥ 1000 nM | 10 to 100 nM | – | –
CC(=O)Nc1cc2c(cn1)C1(CC1)CN2c1cc(C)cc(OCC(F)(F)F)n1 [Example 333, N-(1′-(4-methyl-6-(2,2,2-trifluoroethoxy)pyridin-2-yl)-1′,2′-dihydrospiro[cyclopropane-1,3′-pyrrolo[3,2-c]pyridin]-6′-yl)acetamide trifluoroacetate] | ≥ 1000 nM | 100 to 1000 nM | – | –
CC(=O)Nc1cc2c(cn1)C1(CC1)CN2c1cc(C)cc(N2CC(O)C2)n1 [Example 193, N-(1′-(6-(3-hydroxyazetidin-1-yl)-4-methylpyridin-2-yl)-1′,2′-dihydrospiro[cyclopropane-1,3′-pyrrolo[3,2-c]pyridin]-6′-yl)acetamide] | ≥ 1000 nM | 10 to 100 nM | – | –
